In this assay the target is Bcl-2-like protein 1 (Homo sapiens) (UniProt Q07817). In words: Bcl-XL binding to Bim peptide disruption – biochemical, multiplexed, bead flow cytometry, human Bcl-XL, dose response (AID 1322). For inhibition: test concentration not given here. The settings on record: Bead-based flow cytometry, MCF; for inhibition: stronger effect = higher value. For orientation: In flow cytometry, cells or beads pass a laser one at a time.

Calls of active or inactive are those of the source. The rule behind the calls is not given here.

Bcl-2-like protein 1 (Homo sapiens), sequence (Q07817 whole entry, looked up): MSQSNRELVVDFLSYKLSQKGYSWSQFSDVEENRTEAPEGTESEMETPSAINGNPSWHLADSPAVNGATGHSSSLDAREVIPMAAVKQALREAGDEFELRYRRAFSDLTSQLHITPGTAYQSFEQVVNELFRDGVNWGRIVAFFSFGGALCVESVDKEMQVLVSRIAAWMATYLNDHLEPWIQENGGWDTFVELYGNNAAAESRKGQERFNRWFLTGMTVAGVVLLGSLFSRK

Take `C/C(=N\NC(=O)COc1ccc(C(C)(C)C)cc1)c1ccc2c(c1)OCCO2`: the inhibition entry was “inactive”.

For the compound `Nc1ccccc1N=c1ssnc1Cl`, the inhibition entry was “inactive”.

Consider `COc1ccc(Cc2c(O)nc(SC)n(C(C)=O)c2=O)cc1`, for which the inhibition entry is “inactive”.

Consider `Cc1cc(C)c2c(N)c3cccc(C)c3nc2n1`, for which the inhibition entry is “inactive”.

Regarding `Cc1cc(N2CCN(C)CC2)nc2ccc(NC(=S)N3CCN(c4cccc(Cl)c4)CC3)cc12`, the inhibition entry is “inactive”.

For `Nc1ccc(C2=Nc3cccc4cccc(c34)N2)cc1`, the inhibition result is “inactive”.

In the case of `CCCCC(=O)Nc1ccc(C(=O)N2CCC(C(=O)OCC)CC2)cc1`, the inhibition entry is “inactive”.

As to `COc1ccc(OC)c(-n2c(-c3ccc(C)cc3)n[nH]c2=S)c1`, the inhibition entry was “inactive”.

`COc1ccc(NC(=O)c2ccc(CN3CCN(c4ccccc4)CC3)cc2)cc1`: the inhibition entry is “inactive”.

With `O=C(NCc1ccccn1)c1ccc2nc(-c3ccco3)c(-c3ccco3)nc2c1`, the inhibition result is “inactive”.

Take `CCOC(=O)c1ccc(N=c2ssnc2Cl)cc1`: the outcome was inactive.

Regarding `Cc1cc(-c2cc(-c3ccc(Cl)cc3)nc(N)c2C#N)co1`, the inhibition result is “inactive”.

With `Cc1ccc(C)n1-c1cccc(C(=O)O)c1`, the inhibition entry is “inactive”.

Turning to `COc1ccccc1-n1c(-c2ccccc2)c[nH]c1=S`, the inhibition entry was “inactive”.

As to `O=c1[nH]c2ccc(N=Cc3c(O)ccc4cc(Br)ccc34)cc2[nH]1`, the inhibition entry is “inactive”.

`COc1ccc(N2C(=O)C(Cl)=C(Nc3ccccc3O)C2=O)cc1`: the inhibition result is “inactive”.

Take `COc1ccc(CC(=O)Nc2ccc3nc(C)sc3c2)cc1OC`: the inhibition result was “inactive”.

For the compound `CN(CCCOc1ccccc1Br)Cc1ccccc1`, the inhibition entry is “inactive”.

Turning to `O=C(NCCCN1CCN(CCCNC(=O)c2cc([N+](=O)[O-])ccc2Cl)CC1)c1cc([N+](=O)[O-])ccc1Cl`, the inhibition result is “inactive”.

Turning to `Fc1ccc(C2=Nn3c(Cc4ccccc4F)nnc3SC2)cc1`, the inhibition result was “inactive”.

For `O=[N+]([O-])c1ccc2[nH]nc(-c3ccccc3)c2c1`, the outcome was inactive.

On to `CC(C)COC(=O)/C(C#N)=C/c1cn(Cc2ccccc2)c2ccccc12`, for which the inhibition result was “inactive”.

As to `CC1CCN(C2(O)C(=O)Nc3ccc(Br)cc32)CC1` (configuration not stated), the outcome was inactive.

Regarding `Brc1ccc2ncnc(Nc3ccc(N4CCOCC4)cc3)c2c1`, the inhibition entry is “inactive”.

Regarding `CC1=CC(=O)c2ccccc2C1=O`, the inhibition entry was “inactive”.

Turning to `O=C(NC1=NCCS1)NC12CC3CC(CC(C3)C1)C2`, the inhibition result is “inactive”.

`Cc1ccc(/C=N/N(C)C2=NS(=O)(=O)c3ccccc32)o1`: the inhibition result is “inactive”.

In the case of `COc1ccc2nc(NC(=O)c3ccc(-c4cccc([N+](=O)[O-])c4)o3)sc2c1`, the inhibition entry is “inactive”.

For the compound `CCCCOc1ccc(Cc2c(Cl)nc(SC)nc2N2CCOCC2)cc1`, the inhibition entry is “inactive”.

For the compound `CCN1/C(=C/c2ccc3cc(C)ccc3[n+]2CC)Sc2cc(C)c(C)cc21`, the inhibition entry is “inactive”.

Consider `Cc1ccc2c(C)c(C(=O)Nc3nnc(C)s3)oc2c1`, for which the inhibition entry was “inactive”.

With `COC(=O)c1c(C(=O)OC)c2cccc3cc(-c4ccccc4)c4ccc1c4n32`, the inhibition entry is “inactive”.

On to `Cc1ccc(C(=O)N(CCCN(C)C)c2nc3ccc(Cl)cc3s2)cc1C`, for which the outcome was inactive.

Turning to `COC(=O)CCC(=O)Nc1sc(Cc2ccccc2)c(C)c1C(N)=O`, the inhibition entry was “inactive”.

Turning to `CCN(CC)c1ccc(NC(=O)c2cccc(C)c2)cc1S(=O)(=O)Nc1ccccc1OC`, the inhibition entry is “inactive”.

Take `Cc1nc(=S)c2ccccc2[nH]1`: the inhibition entry was “inactive”.

Turning to `COc1ccc(C)cc1Nc1ccc(C(=O)O)cc1[N+](=O)[O-]`, the result was inactive.

For the compound `Cc1ccccc1-c1nc(-c2ccc(NC(=O)c3ccc4c(c3)OCO4)cc2)no1`, the inhibition entry was “inactive”.

For the compound `Cc1ccc(NN2C(=O)C=CC2=O)cc1`, the result was inactive.

`Fc1ccccc1/C=C1\CCCC2=C1NC(=S)NC2c1ccccc1F` (configuration not stated): the inhibition entry is “inactive”.

In the case of `Clc1nssc1=Nc1ccccc1`, the inhibition result was “inactive”.

Take `Cc1ccc(C2=N/C(=C/c3cccs3)C(=O)N2Nc2ccccc2)cc1`: the inhibition result was “inactive”.

Regarding `O=[N+]([O-])c1ccc(N/N=C/c2ccc(O)c(O)c2O)c(S(=O)(=O)N2CCOCC2)c1`, the inhibition result was “inactive”.

`CCOC(=O)c1cc2c(=O)n3cccc(C)c3nc2n(Cc2ccco2)c1=NC(=O)c1ccccc1`: the inhibition entry was “inactive”.

With `Cc1ccc(/C=C/C(=O)c2ccccc(=O)c2O)c(C)c1`, the inhibition entry is “inactive”.

On to `CC1C=CCC2C(=O)N(c3ccc(OC(=O)c4cccs4)cc3)C(=O)C12` (configuration not stated), for which the outcome was inactive.

Take `C=CS(=O)c1sc(Cl)c(N2CCOCC2)c1[N+](=O)[O-]` (configuration not stated): the outcome was inactive.

As to `COc1ccc(-n2c(SCC(=O)Nc3ccc(C(=O)O)cc3)nnc2-c2cccs2)cc1`, the inhibition result was “inactive”.

For `COc1ccc(CN(CC(=O)NC2CCCC2)C(=O)CCC(=O)Nc2cc(C)on2)cc1`, the outcome was inactive.

Take `COc1ccc(N2CCN(C(=O)c3cc(=O)[nH]c4ccccc34)CC2)cc1`: the inhibition result was “inactive”.

As to `CC1Cc2ccccc2N1C(=O)c1ccc(N2CCCC2)c([N+](=O)[O-])c1` (configuration not stated), the inhibition entry was “inactive”.

As to `Oc1ccc(NCc2ccccc2OCc2ccccc2)cc1`, the outcome was inactive.

Regarding `COc1cccc(/C=N/NC(=O)c2cc3cc([N+](=O)[O-])ccc3s2)c1O`, the inhibition result was “inactive”.

Consider `O=C1C(=O)c2ccc(-c3ccccc3)cc2-c2ccccc21`, for which the inhibition result is “inactive”.

Take `O=C(N/N=C/c1cccc([N+](=O)[O-])c1)c1cccs1`: the result was inactive.

As to `O=C(Nc1ccc2nc(-c3ccco3)c(-c3ccco3)nc2c1)N1CCN(c2ccccn2)CC1`, the inhibition entry was “inactive”.

As to `CC(=O)NC1=C(NC2CCS(=O)(=O)C2)C(=O)c2ccccc2C1=O` (configuration not stated), the inhibition result was “inactive”.

As for `CN1CCN(c2ccc(N)cc2)CC1`, the inhibition entry was “inactive”.

As to `Cc1ccccc1/C=N/Nc1ccnc2cc(Cl)ccc12`, the inhibition result is “inactive”.

Regarding `CC(C)NS(=O)(=O)c1ccc(OCC(=O)Nc2ccc(F)cc2)cc1`, the inhibition entry is “inactive”.

Turning to `CC(C)CNC(=O)c1cccc(NC(=O)c2ccc(Cl)c([N+](=O)[O-])c2)c1`, the inhibition entry is “inactive”.

Turning to `COc1ccc(-c2csc(NC(=O)/C(N=Nc3ccccc3)=C(\C)O)n2)cc1`, the outcome was inactive.

On to `CCOc1cc(/C=N/NC(N)=O)ccc1OCC(=O)Nc1ccc(C)c(C)c1`, for which the inhibition entry is “inactive”.

In the case of `Cc1cccc(N=C2NC(=O)/C(=C/C=C/c3ccco3)S2)c1C`, the inhibition entry is “inactive”.

Regarding `O=C(Nc1ccc(N2CCOCC2)cc1)Nc1ccc2nc(-c3ccco3)c(-c3ccco3)nc2c1`, the inhibition result is “inactive”.

`CCOc1c(Cl)cc(CNc2ccc(N3CCCC3)cc2)cc1OC`: the inhibition entry is “inactive”.

As for `CC(CCc1ccccc1)NC(=O)C1CCN(S(=O)(=O)N2CCCCC2)CC1` (configuration not stated), the inhibition result was “inactive”.

Regarding `Cc1ccc(CC(=O)OCCNC(=O)c2cccnc2)cc1`, the inhibition entry is “inactive”.

As to `O=C(C1=NN[C@@H]2C(=O)N(c3cccc(F)c3)C(=O)[C@H]12)c1ccc2ccccc2n1`, the result was inactive.

In the case of `O=C(Nc1nnc(COc2ccc(Cl)cc2)s1)c1ccco1`, the inhibition result was “inactive”.

As to `Cc1ccc(/C=C/C(=O)c2ccccc(=O)c2O)cc1C`, the inhibition entry is “inactive”.

Consider `Cc1csc(Nc2ccccc2C(F)(F)F)n1`, for which the inhibition entry is “inactive”.

Turning to `COC(=O)c1cc(OC)c(OC)cc1NC(=O)Nc1cccc(C(C)=O)c1`, the inhibition entry is “inactive”.

Take `CCOc1cccc(CNc2ccc(O)cc2)c1OCc1ccccc1Cl`: the inhibition entry is “inactive”.

In the case of `O=C(NC1=C(Nc2ccc(F)cc2)C(=O)c2ccccc2C1=O)c1ccc(Cl)cc1`, the inhibition result is “inactive”.

Consider `O=C1NC(=O)C2(Cc3c(nc4ccccn4c3=O)N3CCCCCC32)C(=O)N1Cc1ccccc1` (configuration not stated), for which the inhibition result is “inactive”.

As for `O=C1c2ccccc2C(=O)N1CN(C(=O)COc1ccc(Cl)cc1Cl)c1cccc(F)c1`, the inhibition entry was “inactive”.

Take `CN(C)/C=C/C(=O)c1ccc(C(F)(F)F)cc1F`: the inhibition entry was “inactive”.

As to `COc1cccc(N2CC(C(=O)Nc3nnc(SCC(=O)c4ccccc4)s3)CC2=O)c1` (configuration not stated), the inhibition entry is “inactive”.

Turning to `O=C(OCc1nc2ccccc2[nH]1)C12CC3CC(CC(C3)C1)C2`, the inhibition entry was “inactive”.

For `O=C1N/C(=C/c2cccn2-c2ccccc2)C(=O)N1Cc1ccc(F)cc1`, the outcome was inactive.

Regarding `COc1ccc2oc(-c3ccccc3)c(C(=O)N3CCOCC3)c2c1`, the inhibition entry was “inactive”.

`Cc1ccc(C)n1-c1ccc(N2CCOCC2)cc1`: the inhibition result is “inactive”.

As to `COc1ccc(C2(NC(C)=O)CCN(C(=O)c3ccco3)CC2)cc1`, the inhibition entry was “inactive”.

In the case of `COc1cccc(/C=C2/SC(=O)N(C)C2=O)c1OCc1ccc(C(=O)O)cc1`, the inhibition entry was “inactive”.

As to `CN1/C(=C\C(=O)Nc2ccc(Cl)cc2)C(C)(C)c2ccccc21`, the inhibition entry was “inactive”.

Take `CCN(CC)c1ccc(NC(=O)c2ccc(=O)[nH]c2)cc1S(=O)(=O)Nc1ccccc1OC`: the inhibition entry was “inactive”.

With `O=C(O)CC/C(=C\c1cc([N+](=O)[O-])ccc1Cl)c1nc2ccccc2s1`, the inhibition result is “inactive”.

For `Cc1ccccc1-n1nc(SCC(=O)O)sc1=S`, the inhibition result was “inactive”.

With `O=C(NCc1ccco1)C1CC2CCC1C2` (configuration not stated), the inhibition entry is “inactive”.

`COc1cccc2c1C(=O)C=C(C)C2=O`: the inhibition result is “inactive”.

`CCCCN(C(=O)CCC(=O)Nc1cc(C)on1)C(C(=O)NC(C)(C)C)c1cccc(OC)c1OC` (configuration not stated): the inhibition result was “inactive”.
